As a reminder, the IC50 is the concentration that gives 50% inhibition. Low readings indicate greater potency, high ones weaker potency. In general, EC50 refers to the concentration giving half of the maximal effect. Read a low EC50 as an effect from little substance. For orientation: inhibition means how much of the control response was suppressed. Read a low inhibition as a response near the control.

21 compounds from ChEMBL document CHEMBL1143527, “Design, synthesis, and activity of achiral analogs of 2-quinolones and indoles as non-thiol farnesyltransferase inhibitors” (Bioorg Med Chem Lett, 2005) can be followed below.

The target of test [1] is T1, Protein farnesyltransferase (Bos taurus, UniProt P29702+P49355). Kind of test: Inhibition of bovine farnesyltransferase. Format: protein-complex assay.
The target of test [2] is T2, Geranylgeranyl transferase type I (Bos taurus, UniProt P29702+Q5EAD5). Kind of test: Inhibition of bovine geranylgeranyl transferase. In kind it is protein-complex assay.
Test [3] has as its target Protein farnesyltransferase (Mus musculus, UniProt Q61239+Q8K2I1). Kind of test: Inhibition of H-ras processing in transformed NIH3T3 cells. In kind it is functional, cell-based.
For test [4], the target named is T3, Protein farnesyltransferase (Mus musculus) (UniProt Q61239+Q8K2I1). Kind of test: (§1) Percent inhibition of H-ras processing in transformed NIH3T3 cells at 100 nM. In kind it is functional, cell-based.
Test [5] addresses T3, Protein farnesyltransferase (Mus musculus). Described as §1. In kind it is functional, cell-based. This is another data set of the same source.
Test [6] deals with T2, Geranylgeranyl transferase type I. Kind of test: Inhibition of bovine Geranylgeranyltransferase. In kind it is protein-complex assay.
Test [7] addresses T1, Protein farnesyltransferase. Kind of test: Inhibition of bovine Farnesyltransferase. Format: protein-complex assay.
For test [8], the target named is T3, Protein farnesyltransferase (Mus musculus). Kind of test: Percent inhibition of H-ras processing in transformed NIH3T3 cells at 1000 nM. Format: functional, cell-based.

For the compound `N#Cc1ccc(Cn2cncc2Cn2ccc3cc(-c4cccc5ccccc45)ccc32)cc1`, the concentration for half-maximal inhibition (IC50) in test [1] was determined as 0.93 nM; in test [2], 270 nM. In addition, a half-maximal effect in test [3] (EC50) was put at 5.7 nM.
`Cn1c(=O)cc(-c2cccc(Cl)c2)c2cc(Cn3cncc3Cc3ccc(C#N)cc3)ccc21`: the inhibition in test [4] and in test [5] was 57% throughout. Besides, the IC50 in test [6] was 17000 nM; in test [1], 7.2 nM; in test [2], greater than 10000 nM; in test [7], 4.7 nM.
Turning to `Cn1c(=O)cc(-c2cccc(Cl)c2)c2cc(COCc3cncn3Cc3ccc(C#N)cc3)ccc21`, in test [1], it took 89 nM to reach half-maximal inhibition (IC50).
`N#Cc1cn(Cc2cncn2Cc2ccc3c(c2)OCO3)cc1-c1cccc2ccccc12` registered an inhibition in test [8] of 68%. The IC50 in test [1] came to 6.1 nM; in test [2], 520 nM.
In test [1], `Cn1cncc1C(OCc1ccc2c(c1)c(-c1cccc(Cl)c1)cc(=O)n2C)c1ccc(C#N)cc1` (configuration not stated) had an IC50 of 80 nM.
Regarding `CC(=O)OC(c1ccc(C#N)cc1)c1cncn1Cc1ccc2c(c1)c(-c1cccc(Cl)c1)cc(=O)n2C` (configuration not stated), the IC50 in test [1] and in test [2] was greater than 1000 nM in each case.
Regarding `Cn1c(=O)cc(-c2cccc(Cl)c2)c2cc(C(NC=O)c3cncn3Cc3ccc(C#N)cc3)ccc21` (configuration not stated), in test [5], the inhibition came out at 28%. The IC50 in test [1] is 2.1 nM; in test [2], greater than 10000 nM.
The like results for `Cn1c(=O)cc(-c2cccc(Cl)c2)c2cc(C(N)c3cncn3Cc3ccc(C#N)cc3)ccc21` (configuration not stated) were, in that order, 42%, 3.8 nM and 22000 nM.
Compound `Cn1c(=O)cc(-c2cccc(Cl)c2)c2cc(Cn3cncc3COc3ccc(C#N)cc3)ccc21` yielded an IC50 in test [1] greater than 1000 nM.
In turn, `NC(=O)N1CCC(CC(=O)N2CCC([C@H]3c4ncc(Br)cc4CCc4cc(Cl)cc(Br)c43)CC2)CC1` [LONAFARNIB] returned an inhibition in test [5] of 100%. Besides, the IC50 in test [2] is greater than 10000 nM.
`Cn1cncc1[C@@](N)(c1ccc(Cl)cc1)c1ccc2c(c1)c(-c1cccc(Cl)c1)cc(=O)n2C` registered an inhibition in test [5] of 1.6%.
As for `N#Cc1ccc(Cn2cncc2Cn2ccc3c(C#N)c(-c4cccc5ccccc45)ccc32)cc1`, the IC50 in test [1] is 0.15 nM; in test [2], 110 nM. For the same compound, in test [3], the EC50 was 2.1 nM.
Consider `N#Cc1ccc(Cn2cncc2Cn2cc(C#N)c(-c3cccc4ccccc34)c2)cc1`, for which the IC50 is 0.58 nM in test [1] and 140 nM in test [2]. This compound had an EC50 in test [3] of 34 nM.
Take `Cn1c(=O)cc(-c2cccc(Cl)c2)c2cc(Cn3cncc3C(O)c3ccc(C#N)cc3)ccc21` (configuration not stated): the IC50 in test [1] was 44 nM; in test [2], greater than 10000 nM.
In test [5], `Cn1c(=O)cc(-c2cccc(Cl)c2)c2cc(C(=O)c3cncn3Cc3ccc(C#N)cc3)ccc21` came in with an inhibition of 30%. Besides, the IC50 in test [1] was 29 nM; in test [2], less than 10000 nM.
In test [5], `Cn1c(=O)cc(-c2cccc(Cl)c2)c2cc(C(O)c3cncn3Cc3ccc(C#N)cc3)ccc21` (configuration not stated) showed an inhibition of 32%. Also, the IC50 in test [1] was determined as 4.7 nM; in test [2], 17000 nM.
In the case of `Cn1c(=O)cc(-c2cccc(Cl)c2)c2cc(Cn3cncc3Cn3ccc(C(=O)N4CCOCC4)c3)ccc21`, the IC50 in test [1] was greater than 1000 nM.
In test [1], `Cn1c(=O)cc(-c2cccc(Cl)c2)c2cc(Cn3cncc3Cn3ccc(C#N)c3)ccc21` displayed an IC50 of 560 nM.
Take `Cn1c(=O)cc(-c2cccc(Cl)c2)c2cc(Cn3cncc3Cc3ccc(C#N)cc3)cnc21`: the inhibition in test [5] is 39%. Moreover, the IC50 turned out to be 10 nM in test [1] and 4000 nM in test [2].
With `Cn1c(=O)cc(-c2cccc(Cl)c2)c2cc(Cn3cncc3Cn3ccc(=O)cc3)ccc21`, the IC50 in test [1] was greater than 1000 nM.
Turning to `Cn1c(=O)cc(-c2cccc(Cl)c2)c2cc(Cn3cncc3COCc3ccc(C#N)cc3)ccc21`, the IC50 in test [1] is greater than 1000 nM.
